Measurements taken from patent US12419853B2, “Nanoparticle pharmaceutical delivery system” (ADEIRA PHARMA, LLC, priority 2019, dated 2025).

Key:
[1] = tested on: OVCAR3 human ovarian carcinoma xenograft; assay: OVCAR3 xenograft efficacy; type: in vivo; settings: CB.17 SCID mice, 4 mg/kg weekly, four doses
Experimental: In this three-arm study, a vehicle control was included, which consisted of the nanoparticle emulsion with no cisplatin. A positive control arm included a conventional formulation of free cisplatin dosed at 4 mg/kg. The test arm included the nanoparticle emulsion at a dose of 4 mg/kg.
60 female CB.17 SCID mice, aged 8 to 12 weeks, were implanted with 1 mm^3 OVCAR3 tumor fragments in the flank. When the tumors had grown to approximately 100-150 mm^3, pairs were matched by tumor size and treatment began. Dosing was carried out weekly on all three arms, for a total of four doses. Body weight and tumor size for each of the mice was taken every other day. No excess toxicity was noted, as evidenced by body weight and observed behavior of the mice. […] The negative control (labeled ‘vehicle’ in FIG. 6) served as a reference for tumor growth in the absence of cisplatin.

[2] = Text: In a fifth alternative example, formulation of a nanoparticle emulsion was attempted as described in example 1, except that no triacetin was used, just safflower oil as the lipid component. […] The maximum solubility was approximately 1000× less than in triacetin.

Row | Structure (SMILES) | effect on tumor growth [1] | maximum solubility in safflower oil, fold less than in triacetin [2]
1 | N.N.[Cl][Pt][Cl] [free cisplatin, cisplatin] | significant reduction in tumor growth | –
2 | CC(=O)O[C@H]1C(=O)[C@@]2(C)[C@H]([C@H](OC(=O)c3ccccc3)[C@]3(O)C[C@H](OC(=O)[C@H](O)[C@@H](NC(=O)c4ccccc4)c4ccccc4)C(C)=C1C3(C)C)[C@]1(OC(C)=O)CO[C@@H]1C[C@@H]2O [paclitaxel] | – | approximately 1000 ×
